The results in this text go back to PubChem BioAssay (NCI).

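Dose response: 5 concentrations. Exposure: 48 h. Format: 96-well plates. Endpoint: linear interpolation; highest concentration if not reached. At the TGI there is no net growth.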

Among the test systems are SNB-19 CNS; HOP-62 NSCLC; OVCAR-8 ovarian; MOLT-4 leukemia; PC-3 prostate; U251 CNS; SF-295 CNS; A549 NSCLC; HCC-2998 colon; MDA-MB-231 breast.
Experiment in all cases: NCI anticancer screen, dose series, 48 h

As to `N=C(/C=C/c1ccc(-c2cn3cc(/C=C/C(=N)N4CCCC4)ccc3n2)cc1)N1CCCC1`, the TGI in the assay on SNB-19 CNS, in the assay on HOP-62 NSCLC, with OVCAR-8 ovarian, in the assay with MOLT-4 leukemia, with PC-3 prostate and in the assay with U251 CNS was > 100 µM throughout. Besides, the TGI in the assay with SF-295 CNS, with A549 NSCLC, in the assay on HCC-2998 colon and in the assay on MDA-MB-231 breast was > 100 µM each time.
With `Cc1c2c(c(C)n1-c1ccccc1)C(=O)N(CCSC(=N)N)C2=O`, the TGI in the assay on SNB-19 CNS, with HOP-62 NSCLC, in the assay with OVCAR-8 ovarian, in the assay on MOLT-4 leukemia, in the assay with PC-3 prostate and with U251 CNS was > 100 µM throughout. Moreover, the TGI in the assay with SF-295 CNS, with A549 NSCLC, in the assay with HCC-2998 colon and with MDA-MB-231 breast was > 100 µM each time.
Take `CC(=O)OCCC1c2ccccc2-n2nc(-c3ccccc3)c(O)c21` (stereo not given): the TGI with SNB-19 CNS was found to be 32.2 µM; in the assay with HOP-62 NSCLC, 30.1 µM; in the assay on OVCAR-8 ovarian it was 55.9 µM; in the assay with MOLT-4 leukemia it was 56.3 µM; with PC-3 prostate, 34.3 µM; with U251 CNS, 26.7 µM. Besides, the TGI with SF-295 CNS came out at 45 µM; in the assay on A549 NSCLC it was 37.3 µM; in the assay with HCC-2998 colon it was 56 µM; in the assay with MDA-MB-231 breast, 43.3 µM.
On to `N#C/C(=C1\N=C(c2ccccc2O)Oc2ccccc21)c1ccc([N+](=O)[O-])cc1`, for which the TGI with SNB-19 CNS, with HOP-62 NSCLC, in the assay with OVCAR-8 ovarian, with MOLT-4 leukemia, with PC-3 prostate and in the assay on U251 CNS was > 100 µM each time. The TGI in the assay on SF-295 CNS, with A549 NSCLC, in the assay with HCC-2998 colon and with MDA-MB-231 breast was > 100 µM throughout.
`COCCOCN(C(=O)C1=CCC2(CC1)OCCO2)c1ccccc1I`: the TGI in the assay on SNB-19 CNS, in the assay with HOP-62 NSCLC, with OVCAR-8 ovarian, with MOLT-4 leukemia, with PC-3 prostate and with U251 CNS was > 50 µM each time. Besides, the TGI in the assay on SF-295 CNS, with A549 NSCLC, with HCC-2998 colon and with MDA-MB-231 breast was > 50 µM each time.
For `CCOC(=O)N1CCN(Cc2cc(=O)n3cc(C)ccc3n2)CC1`, the TGI in the assay with SNB-19 CNS, with HOP-62 NSCLC, with OVCAR-8 ovarian, in the assay with MOLT-4 leukemia, with PC-3 prostate and with U251 CNS was > 100 µM in each case. Besides, the TGI in the assay on SF-295 CNS, with A549 NSCLC, in the assay on HCC-2998 colon and in the assay on MDA-MB-231 breast was > 100 µM in each case.
Turning to `Cc1cc2nc(N3C(=O)/C(=C/c4cccc([N+](=O)[O-])c4)N=C3c3ccccc3)sc2cc1C`, the TGI in the assay on SNB-19 CNS was > 100 µM; in the assay on HOP-62 NSCLC it was > 100 µM; in the assay with OVCAR-8 ovarian it was 80.2 µM; in the assay with MOLT-4 leukemia, 32.4 µM; with PC-3 prostate, 56.5 µM; in the assay with U251 CNS it was 58 µM. Further, the TGI in the assay on SF-295 CNS was > 100 µM; with A549 NSCLC, > 100 µM; in the assay on HCC-2998 colon it was 53.7 µM; in the assay with MDA-MB-231 breast, > 100 µM.
As to `O=C(NCCN1C(=O)CN=C(c2ccc(Cl)cc2)c2cc(Cl)ccc21)OCc1ccccc1`, the TGI in the assay on SNB-19 CNS was 50.8 µM; with HOP-62 NSCLC it was 38.2 µM; with OVCAR-8 ovarian, 38.3 µM; in the assay on MOLT-4 leukemia, > 100 µM; with PC-3 prostate, 28.3 µM; with U251 CNS it was 30.1 µM. The TGI with SF-295 CNS stood at 29.4 µM; in the assay with A549 NSCLC it was 32.7 µM; with HCC-2998 colon it was 32.7 µM; with MDA-MB-231 breast, 32.3 µM.
On to `N#Cc1ncn(-c2ccccc2)c1N`, for which the TGI in the assay on SNB-19 CNS, in the assay on HOP-62 NSCLC, in the assay on OVCAR-8 ovarian, in the assay with MOLT-4 leukemia, in the assay with PC-3 prostate and in the assay on U251 CNS was > 100 µM in each case. Further, the TGI in the assay on SF-295 CNS, with A549 NSCLC, in the assay on HCC-2998 colon and with MDA-MB-231 breast was > 100 µM each time.
As for `CC[C@@H](CCCC[C@@H]1CC[C@H]2CC(=O)C[C@@H]12)OC`, the TGI in the assay with SNB-19 CNS, in the assay on HOP-62 NSCLC, with OVCAR-8 ovarian, in the assay with MOLT-4 leukemia, in the assay with PC-3 prostate and in the assay on U251 CNS was > 100 µM each time. Moreover, the TGI in the assay with SF-295 CNS, in the assay with A549 NSCLC, in the assay with HCC-2998 colon and in the assay on MDA-MB-231 breast was > 100 µM each time.
Take `CC[C@@H]1CN2CCC1C[C@@H]2C(O)c1ccnc2ccc(OCCN3CCN(CCOc4ccc5nccc(C(O)[C@@H]6C[C@@H]7CCN6C[C@@H]7CC)c5c4)CC3)cc12` (stereo not given in full): the TGI turned out to be 27.9 µM in the assay with SNB-19 CNS; 36.2 µM with HOP-62 NSCLC; 42.6 µM in the assay on OVCAR-8 ovarian; 21.7 µM in the assay with MOLT-4 leukemia; 30.3 µM in the assay on PC-3 prostate; 33.1 µM in the assay with U251 CNS. The TGI was found to be 30.5 µM in the assay with SF-295 CNS, 29.8 µM with A549 NSCLC, 26.2 µM in the assay on HCC-2998 colon and 31.3 µM with MDA-MB-231 breast.
Take `Cc1cn(CC2=NCCN2)c(=O)[nH]c1=O`: the TGI with SNB-19 CNS, with HOP-62 NSCLC, in the assay with OVCAR-8 ovarian, in the assay on MOLT-4 leukemia, in the assay with PC-3 prostate and with U251 CNS was > 100 µM in each case. In addition, the TGI with SF-295 CNS, in the assay with A549 NSCLC, in the assay on HCC-2998 colon and with MDA-MB-231 breast was > 100 µM each time.
In the case of `O=C1NCC2(CCNCC2)N1c1ccccc1`, the TGI with SNB-19 CNS, in the assay on HOP-62 NSCLC, in the assay with OVCAR-8 ovarian, in the assay on MOLT-4 leukemia, with PC-3 prostate and in the assay on U251 CNS was > 100 µM throughout. In addition, the TGI in the assay with SF-295 CNS, in the assay on A549 NSCLC, with HCC-2998 colon and in the assay with MDA-MB-231 breast was > 100 µM in each case.
